Literature values in patent US20210284969A1, “METHODS AND SYSTEMS FOR TRANSPORTATION AND CULTURE OF BUOYANT TISSUE” (eXo Cell, LLC, priority 2020, published 2021).

Key:
[1] = tested on: obese, diabetic yellow KK mice
brown adipose tissue = settings: in humans

## C[C@H](Cc1ccc2c(c1)OC(C(=O)[O-])(C(=O)[O-])O2)NC[C@H](O)c1cccc(Cl)c1.[Na+].[Na+] [CL-316243]
[1]
  effect on obesity: ameliorated obesity

## O=S(=O)(Nc1ccc(CCNC[C@H](O)c2cccnc2)cc1)c1ccc(-c2nc(-c3ccc(C(F)(F)F)cc3)cs2)cc1 [L-796568]
Obese human males
  anti-obesity effects: did not generate notable anti-obesity effects
  energy expenditure: improved energy expenditure

## Nc1nc(CC(=O)Nc2ccc(CCNC[C@H](O)c3ccccc3)cc2)cs1 [migrabegron]
Brown adipose tissue
  brown adipose tissue activation: activate brown adipose tissue
